From US10442804B2, “Compounds for the treatment of hepatitis B virus infection” (Gilead Sciences, Inc., priority 2017, dated 2019)
Where two headings read alike, the source gives them in different places. Each block holds one molecule with its values, some of them ahead of it.

Tests used:
[1] = test system: HBV-infected NTCP-HepG2 cells, secreted HBsAg; assay: microbe, parasite or virus in culture; assay type: cell-based, hepatitis B virus (genotype D, AD38-derived); details: secreted HBsAg in supernatant after 5 days, geometric mean of minimum four determinations, read-out: NTCP HBsAg EC50
Method in brief: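 NTCP-HepG2 cells were infected with genotype D HBV at 4000 genome equivalents/cell, then seeded 4 days post-infection with serially diluted compounds (1% DMSO) for 5 days. Supernatant HBsAg was measured by chemiluminescent MSD immunoassay. EC50 from four-parameter fit, geometric mean of ≥4 determinations.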

[2] = MT-4 cytotoxicity assay; assay type: cell-based, human; details: human, five days, Cell Titer Glo luminescence; read-out: MT-4 CC50
[3] = In vitro metabolic stability, hepatocyte stability (rat); assay type: in vitro ADME; details: Rat hepatocytes, read-out: hepatocyte stability T1/2 (converted)
Procedure: (§1) Biological Example 3: In Vitro Metabolic Stability
(§2) For hepatocyte stability incubations, cells were obtained from BioreclamationIVT (Baltimore, Md.), thawed according to the manufacturer's directions, and resuspended to a final concentration of 1×10^6 cells/mL in Krebs-Henseleit buffer prewarmed to 37° C. The total cell count and the proportion of viable cells were determined by Trypan Blue dye exclusion using a hemocytometer. The final concentration of test compounds and positive controls was 2 μM. Incubations were carried out in duplicate wells of a 24-well plate out with gentle shaking at 37° C. under a humid atmosphere of 95% air/5% CO2 (v/v). Aliquots (50 μL) were removed after 0, 1, 3, and 6 hours and added to 100 μL quenching solution. Samples were then processed and analyzed in a manner similar to the microsomal stability samples.
(§3) Quantification of test compounds and positive controls were performed using analyte/internal standard peak area ratios (PAR) measured on a Q-Exactive mass spectrometer (Thermo Scientific, San Jose, Calif.) coupled to an Aria Transcend LX-4 multiplex UHPLC system (Thermo Scientific, San Jose, Calif.). […] Half-lives of compounds in the incubations were calculated from extracted data using GMSU/QuickCalc (Gubbs, Inc.) and data are summarized in the following Table 2.

[4] = In vitro metabolic stability, hepatocyte stability (dog); assay type: in vitro ADME; details: Dog hepatocytes, read-out: hepatocyte stability T1/2 (converted)
Procedure: as §1, §2, §3

[5] = In vitro metabolic stability, hepatocyte stability (cynomolgus monkey); assay type: in vitro ADME; details: Cyno hepatocytes, read-out: hepatocyte stability T1/2 (converted)
Procedure: as §1, §2, §3

[6] = In vitro metabolic stability, hepatocyte stability (human); assay type: in vitro ADME; details: Human hepatocytes, read-out: hepatocyte stability T1/2 (converted)
Procedure: as §1, §2, §3

[7] = test system: MT-4 cell line (HTLV-1 transformed, human T lymphoblastoid cells); assay: MT-4 cytotoxicity assay; assay type: cell-based; details: five days, Cell Titer Glo luminescence
[8] = test system: Human iPSC derived iCell GABAergic Neurons; assay: Human iPSC neurite outgrowth assay; assay type: cell-based
Procedure: Biological Example 4: Toxicology Study
Human iPSC Neurite Outgrowth Assay
Human induced pluripotent stem cell (iPSC) derived iCell GABAergic Neurons (Cellular Dynamics Inc.) were seeded at a density of 67,500 cells per square centimeter into 384 well plates. The neurons were plated for 1 hour in attachment media before exchange for serum-free growth media (Cellular Dynamics Inc.). The serum-free growth media was exchanged for fresh media and the plated neurons were treated with test compounds and control compounds at 6 concentrations (1 nM-100 μM) at 4 and 24 hour timepoints in triplicate wells. Optimum neuron cell attachment to the plates was obtained at the 24 hour timepoint. Vincristine was utilized as the positive control for toxic inhibition of neurite outgrowth and 0.1% DMSO treatment was used for control treatment of neurons. Celltracker and DRAQ7 stains were applied prior to fixation of cells to assess nuclear and cell viability. Cells were then fixed for 20 minutes in 4% formaldehyde in PBS containing Hoechst dye and then fixative was replaced with PBS twice. High content imaging was performed with 9 fields of 20× magnification on a CX7 HCS system with an algorithm to enable quantification of neurite lengths and neurite branch points in all treatment groups. The results of the counts and measurements were then analyzed by the strictly standardized mean difference (SSMD) method of analysis to measure effect size for any decreases in mean neurite total length per cell (microns) or changes in mean branch point counts per cell (PhenoVista Biosciences, San Diego). FIG. 1 depicting plots of mean branch point counts per cell as a function of concentration for Vincristine, RG783/R07020322, and Compound 73 (free base, purified without addition of TFA). […]

Compound: COCCCOc1cc2c(cc1Cl)-c1cc(=O)c(C(=O)O)cn1N1[C@@H]2CCC1(C)C (single isomer, unassigned) [Example 5]
EC50 ([1]; Hepatitis B virus, 120 h): 1.7 nM | CC50 at 5 days [2]: > 10000 nM | half-life at 2 μM [3]: > 39.5 h | half-life at 2 μM [4]: > 39.5 h | half-life at 2 μM [5]: 20.8 h | half-life at 2 μM [6]: > 39.5 h

Compound: COCCCOc1cc2c(cc1Cl)-c1cc(=O)c(C(=O)O)cn1[C@H]1[C@@H]2CCC1(C)C (racemic) [Example 32, cis-10-chloro-11-(3-methoxypropoxy)-3,3-dimethyl-7-oxo-1,2,3,3a,7,12b-hexahydrocyclopenta[c]pyrido[2,1-a]isoquinoline-6-carboxylic acid]
EC50 [1]: 120 nM | CC50 [7]: 6000 nM

neurite total length and branch point counts ([8]; 4 and 24 hour treatments, vs 0.1% DMSO treated neurons, SSMD analysis): significant decreases | Decreased Neurite Length SSMD Values ([8]; 4 hr, 1 μM, vs 0.1% DMSO): −7.3 | Branch Point Count SSMD Values ([8]; 4 hr, 10 μM, vs 0.1% DMSO): −3.0 | Decreased Neurite Length SSMD Values ([8]; 4 hr, 10 μM, vs 0.1% DMSO): −5.7 | Branch Point Count SSMD Values ([8]; 4 hr, 100 μM, vs 0.1% DMSO): −3.5 | Decreased Neurite Length SSMD Values ([8]; 4 hr, 100 μM, vs 0.1% DMSO): −10 | Branch Point Count SSMD Values ([8]; 24 hr, 1 μM, vs 0.1% DMSO): −3.1 | Decreased Neurite Length SSMD Values ([8]; 24 hr, 1 μM, vs 0.1% DMSO): −4.9 | Branch Point Count SSMD Values ([8]; 24 hr, 10 μM, vs 0.1% DMSO): −3.6 | Decreased Neurite Length SSMD Values ([8]; 24 hr, 10 μM, vs 0.1% DMSO): −5.4 | Branch Point Count SSMD Values ([8]; 24 hr, 100 μM, vs 0.1% DMSO): −6.0 | Decreased Neurite Length SSMD Values ([8]; 24 hr, 100 μM, vs 0.1% DMSO): −6.6
Compound: CC[C@]1(O)C[C@H]2CN(CCc3c([nH]c4ccccc34)[C@@](C(=O)OC)(c3cc4c(cc3OC)N(C=O)[C@H]3[C@@](O)(C(=O)OC)[C@H](OC(C)=O)[C@]5(CC)C=CCN6CC[C@]43[C@@H]65)C2)C1 [Vincristine]
Branch Point Count SSMD Values ([8]; 4 hr, 0.001 μM, vs 0.1% DMSO): NS (NS = no significant effect and >−3 SSMD Values.) | Decreased Neurite Length SSMD Values ([8]; 4 hr, 0.001 μM, vs 0.1% DMSO): NS (NS = no significant effect and >−3 SSMD Value.) | Branch Point Count SSMD Values ([8]; 4 hr, 0.01 μM, vs 0.1% DMSO): NS (NS = no significant effect and >−3 SSMD Values.) | Decreased Neurite Length SSMD Values ([8]; 4 hr, 0.01 μM, vs 0.1% DMSO): NS (NS = no significant effect and >−3 SSMD Value.) | Branch Point Count SSMD Values ([8]; 4 hr, 0.1 μM, vs 0.1% DMSO): NS (NS = no significant effect and >−3 SSMD Values.) | Decreased Neurite Length SSMD Values ([8]; 4 hr, 0.1 μM, vs 0.1% DMSO): NS (NS = no significant effect and >−3 SSMD Value.) | Branch Point Count SSMD Values ([8]; 4 hr, 1 μM, vs 0.1% DMSO): NS (NS = no significant effect and >−3 SSMD Values.) | Branch Point Count SSMD Values ([8]; 24 hr, 0.001 μM, vs 0.1% DMSO): NS (NS = no significant effect and >−3 SSMD Values.) | Decreased Neurite Length SSMD Values ([8]; 24 hr, 0.001 μM, vs 0.1% DMSO): NS (NS = no significant effect and >−3 SSMD Value.) | Branch Point Count SSMD Values ([8]; 24 hr, 0.01 μM, vs 0.1% DMSO): NS (NS = no significant effect and >−3 SSMD Values.) | Decreased Neurite Length SSMD Values ([8]; 24 hr, 0.01 μM, vs 0.1% DMSO): NS (NS = no significant effect and >−3 SSMD Value.) | Branch Point Count SSMD Values ([8]; 24 hr, 0.1 μM, vs 0.1% DMSO): NS (NS = no significant effect and >−3 SSMD Values.) | Decreased Neurite Length SSMD Values ([8]; 24 hr, 0.1 μM, vs 0.1% DMSO): NS (NS = no significant effect and >−3 SSMD Value.) | neuron counts or neuron viability ([8]; any of the tested concentrations (1 nM-100 μM), vs 0.1% DMSO control, SSMD analysis): No significant changes of effect

Compound: COCCCOc1cc2c(cc1Cl)-c1cc(=O)c(C(=O)O)cn1[C@H]1[C@@H]2CCC1(C)C (single isomer, unassigned) [Example 33]
EC50 ([1]; Hepatitis B virus, 120 h): 1.8 nM | CC50 at 5 days [2]: 7900 nM | half-life at 2 μM [3]: 1.6 h | half-life at 2 μM [4]: 5.7 h | half-life at 2 μM [5]: 5.6 h | half-life at 2 μM [6]: 21.6 h

neurite total length and branch point counts [8]: significant decreases | Decreased Neurite Length SSMD Values ([8]; human, 4 h, 10 μM): −3.8 | Branch Point Count SSMD Values ([8]; human, 4 h, 100 μM): −5.2 | Decreased Neurite Length SSMD Values ([8]; human, 4 h, 100 μM): −4.0 | Branch Point Count SSMD Values ([8]; human, 24 h, 1 μM): −3.3 | Decreased Neurite Length SSMD Values ([8]; human, 24 h, 1 μM): −3.4 | Branch Point Count SSMD Values ([8]; human, 24 h, 10 μM): −3.4 | Decreased Neurite Length SSMD Values ([8]; human, 24 h, 10 μM): −5.9 | Branch Point Count SSMD Values ([8]; human, 24 h, 100 μM): −5.0 | Decreased Neurite Length SSMD Values ([8]; human, 24 h, 100 μM): −4.5
Compound: COCCCOc1cc2c(cc1OC)-c1cc(=O)c(C(=O)O)cn1[C@H](C(C)C)C2 [RG7834/R07020322]

Compound: COCCCOc1cc2c(cc1COC)-c1cc(=O)c(C(=O)O)cn1N1[C@@H]2CCC1(C)C [Example 73, (R)-11-(methoxymethyl)-12-(3-methoxypropoxy)-3,3-dimethyl-8-oxo-2,3,8,13b-tetrahydro-1H-pyrido[2,1-a]pyrrolo[1,2-c]phthalazine-7-carboxylic acid]
EC50 ([1]; Hepatitis B virus, 120 h): 1.9 nM | CC50 at 5 days [2]: > 10000 nM | neurite total length and branch point counts [8]: No significant effects
